According to patent US6602888B2, “Use of α1C specific compounds to treat benign prostatic hyperplasia” (Synaptic Pharmaceutical Corporation, priority 1992, dated 2003):
Like-named read-outs stand apart in the source and are kept apart here.

What was measured:
human D2 receptor = target: T1, human D2 receptor (Homo sapiens, UniProt P14416); test: [3H]spiperone binding, dopamine D2 receptor; details: for Ki: read-out: Dopamine D2 (pK1)
T1 construct: host or cells: COS-7, transient, DEAE-dextran
Method: The potency of α1 antagonists at the D2 receptor was determined using membrane preparations from COS-7 cells transfected with the gene encoding the human D2 receptor. The coding region for the human D2 receptor was obtained from a human striatum cDNA library, and cloned into the cloning site of PCDNA 1 eukariotic expression vector. The plasmid DNA for the D2 receptor is designated pcEXV-D2, and was deposited on Nov. […] This construct was transfected into COS-7 cells by the DEAE-dextran method. […] The cell lysates were incubated with [3H]spiperone (2 nM), using 10 μM (+)Butaclamol to determine nonspecific binding.

[1] = target: T2, human histamine H2 receptor (Homo sapiens, UniProt P25021); test: [3H]tiotidine binding, histamine H2 receptor; details: for Ki: read-out: Histamine H2 (pK1) (converted)
T2 construct: host or cells: COS-7, transient, DEAE-dextran
Text: The coding sequence of the human H2 receptor was obtained from a human placenta genomic library, and cloned into the cloning site of PCEXV-3 eukaryotic expression vector. The plasmid DNA for the H2 receptor is designated pcEXV-H2, and was deposited on Nov. […] This construct was transfected into COS-7 cells by the DEAE-dextran method.

human 5HT2 receptor = target: T3, human 5HT2 receptor (Homo sapiens, UniProt P28223); test: [3H]ketanserin competition binding, 5HT2 receptor; details: for Ki: read-out: Serotonin 5HT2 (pK1)
T3 construct: host or cells: COS-7 (DEAE-dextran); the same paragraph also names a deposited line L-NGC-5HT2
Method: The coding sequence of the human 5HT2 receptor was obtained from a human brain cortex cDNA library, and cloned into the cloning site of pCEXV-3 eukaryotic expression vector. This construct was transfected into COS-7 cells by the DEAE-dextran method. […] Nonspecific binding was defined by the addition of 10 μM mianserin.

[2] = target: T4, human α2C adrenergic receptor (Homo sapiens, UniProt P18825); test: Competition binding, [3H]rauwolscine, α2C receptor; details: for Ki: read-out: Alpha-2 Adrenergic a2c (pK1) (converted)
T4 sequence (P18825 1-462): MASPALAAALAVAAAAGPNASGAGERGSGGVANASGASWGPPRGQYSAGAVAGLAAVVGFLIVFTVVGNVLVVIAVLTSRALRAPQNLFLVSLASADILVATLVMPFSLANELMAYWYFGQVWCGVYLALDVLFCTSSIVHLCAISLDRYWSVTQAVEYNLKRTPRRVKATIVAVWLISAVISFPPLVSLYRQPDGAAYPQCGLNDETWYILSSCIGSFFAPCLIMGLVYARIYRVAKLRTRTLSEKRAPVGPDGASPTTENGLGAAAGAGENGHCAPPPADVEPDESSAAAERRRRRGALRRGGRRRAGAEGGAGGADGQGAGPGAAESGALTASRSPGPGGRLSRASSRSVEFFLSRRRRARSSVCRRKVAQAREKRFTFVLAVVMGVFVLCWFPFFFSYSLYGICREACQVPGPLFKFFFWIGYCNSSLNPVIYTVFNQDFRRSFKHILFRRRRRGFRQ
Method: To determine the potency of α1 antagonists at the α2 receptors, LM(tk−) cell lines stably transfected with the genes encoding the α2A, α2B, and α2C receptors were used. The cell line expressing the α2A receptor is designated L-α2A, and was deposited on Nov. […] The cell line expressing the α2B receptor is designated L-NGC-α2B, and was deposited on Oct. […] The cell line expressing the α2C receptor is designated L-α2C, and was deposited on Nov. […] Cell lysates were prepared as described above (see Radioligand Binding Assays), and suspended in 25 mM glycylglycine buffer (pH 7.6 at room temperature).

human 5HT1F receptor = target: T5, human 5HT1F receptor (Homo sapiens, UniProt P30939); test: [3H]serotonin competition binding, 5HT1F receptor
T5 construct: host or cells: LM(tk-) clonal cell line L-5-HT1F
T5 sequence (P30939 1-366): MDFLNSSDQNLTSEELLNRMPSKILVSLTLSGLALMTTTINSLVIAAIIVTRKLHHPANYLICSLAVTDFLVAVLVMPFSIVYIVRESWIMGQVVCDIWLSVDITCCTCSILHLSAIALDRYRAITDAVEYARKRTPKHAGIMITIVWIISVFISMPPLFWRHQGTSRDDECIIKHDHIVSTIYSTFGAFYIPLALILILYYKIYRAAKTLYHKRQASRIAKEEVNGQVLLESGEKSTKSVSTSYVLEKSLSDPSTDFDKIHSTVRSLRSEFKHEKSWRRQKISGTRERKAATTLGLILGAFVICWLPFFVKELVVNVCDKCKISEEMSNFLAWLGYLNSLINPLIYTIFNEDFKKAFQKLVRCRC
Method: (§1) 5HT1Dα, 5HT1Dβ, 5HT1E, 5HT1F Receptors: The cell lysates of LM(tk−) clonal cell line stably transfected with the genes encoding each of these 5HT receptor-subtypes were prepared as described above. The cell line for the 5HT1Dα receptor, designated as Ltk-8-30-84, was deposited on Apr. […] The cell for the 5HT1Dβ receptor, designated as Ltk-11, was deposited on Apr. […] The cell line for the 5HT1E receptor, designated 5 HT1E-7, was deposited on Nov. […] The cell line for the 5HT1F receptor, designated L-5-HT1F, was deposited on Dec. […] These preparations were suspended in 50 mM Tris-HCl buffer (pH 7.4 at 37° C.) containing 10 mM MgCl2, 0.2 mM EDTA, 10 μM pargyline, and 0.1% ascorbate.

human 5HT1Dβ receptor = target: T6, human 5HT1Dβ receptor (Homo sapiens, UniProt P28222); test: [3H]serotonin competition binding, 5HT1Dβ receptor
T6 construct: host or cells: LM(tk-) clonal cell line Ltk-11
Method: as §1

human prostate tissue = test: Antagonism of phenylephrine-induced contraction of human prostatic tissue; details: pA2, phenylephrine-induced contraction, dose-ratio method
Method: An index of this efficacy can be obtained by determining the potency of α1 antagonists to antagonize the contraction of human prostatic tissue induced by an α1 agonist “in vitro”.
Prostatic adenomas were obtained at the time of surgery from patients with symptomatic BPH. […] Isometric tension was measured with a Grass Instrument FT03 force transducer interfaced with a computer. Tissue strips were contracted with varying concentrations of phenylephrine after incubating for 20 minutes in the absence and presence of at least three different concentrations of antagonist. Dose-response curves for phenylephrine were constructed, and the antagonist potency (pA2) was estimated by the dose-ratio method.

calcium channels = target: T7, calcium channels (Rattus norvegicus, UniProt P22002); test: [3H]nitrendipine competition binding, calcium channels, rat cardiac muscle membranes; details: for Ki: read-out: Calcium Channel (pK1) (converted)
T7 construct: from tissue; host or cells: rat cardiac muscle membranes
Method: Briefly, the tissue was minced and homogenized in 50 mM Tris-HCl (pH 7.4) containing 0.1 mM phenylmethylsulfonyl fluoride. The homogenates were centrifuged at 1000 g for 15 minutes, the resulting supernatant was centrifuged at 45,000 g for 15 minutes. The 45,000 g pellet was suspended in buffer and centrifuged a second time.

human 5HT1Dα receptor = target: T8, human 5HT1Dα receptor (Homo sapiens, UniProt P28221); test: [3H]serotonin competition binding, 5HT1Dα receptor
T8 construct: host or cells: LM(tk-) clonal cell line Ltk-8-30-84
Method: as §1

[3] = Table 2, rat cardiac muscle membranes
[4] = Table 2, cloned human receptor, read-out: Serotonin 5HT1F (pK1)
[5] = Table 2, cloned human receptor, read-out: Serotonin 5HT1Db (pK1)
[6] = Table 2, cloned human receptor, read-out: Serotonin 5HT1Da (pK1)

T2 sequence (P25021 whole entry): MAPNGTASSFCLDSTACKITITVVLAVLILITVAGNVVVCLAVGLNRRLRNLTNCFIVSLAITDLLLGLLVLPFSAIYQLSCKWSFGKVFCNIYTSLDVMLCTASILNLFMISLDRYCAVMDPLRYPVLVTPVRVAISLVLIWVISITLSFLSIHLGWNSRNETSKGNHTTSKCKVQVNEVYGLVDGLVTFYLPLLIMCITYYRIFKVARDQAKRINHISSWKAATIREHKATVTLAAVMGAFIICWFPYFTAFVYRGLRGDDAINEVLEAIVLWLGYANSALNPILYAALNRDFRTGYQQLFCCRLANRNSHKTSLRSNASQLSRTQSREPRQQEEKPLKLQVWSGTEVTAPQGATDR
T3 sequence (P28223 whole entry): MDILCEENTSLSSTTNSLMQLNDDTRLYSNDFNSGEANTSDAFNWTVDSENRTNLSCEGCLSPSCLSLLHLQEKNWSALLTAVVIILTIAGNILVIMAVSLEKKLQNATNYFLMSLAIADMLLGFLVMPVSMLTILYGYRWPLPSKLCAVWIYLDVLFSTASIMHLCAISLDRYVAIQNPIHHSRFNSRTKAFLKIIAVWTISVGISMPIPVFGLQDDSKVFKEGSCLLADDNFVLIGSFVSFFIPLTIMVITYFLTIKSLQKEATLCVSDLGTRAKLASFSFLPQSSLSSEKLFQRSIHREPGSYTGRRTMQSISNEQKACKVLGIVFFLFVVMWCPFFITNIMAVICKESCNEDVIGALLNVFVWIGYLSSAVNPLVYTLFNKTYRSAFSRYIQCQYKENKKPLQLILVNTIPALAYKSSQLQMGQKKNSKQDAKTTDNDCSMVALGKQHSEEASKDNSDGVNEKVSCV
T8 sequence (P28221 whole entry): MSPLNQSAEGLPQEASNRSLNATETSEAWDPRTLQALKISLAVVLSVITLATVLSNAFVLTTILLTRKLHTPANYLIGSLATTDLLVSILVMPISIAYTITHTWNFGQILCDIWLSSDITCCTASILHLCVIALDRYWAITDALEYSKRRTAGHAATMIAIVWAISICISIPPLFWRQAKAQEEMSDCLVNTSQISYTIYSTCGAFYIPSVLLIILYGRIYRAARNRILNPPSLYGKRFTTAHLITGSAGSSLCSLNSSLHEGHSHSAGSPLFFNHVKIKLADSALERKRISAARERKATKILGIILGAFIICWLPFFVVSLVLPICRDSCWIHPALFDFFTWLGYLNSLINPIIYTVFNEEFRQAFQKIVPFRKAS
T7 sequence (P22002 whole entry, other chains not shown): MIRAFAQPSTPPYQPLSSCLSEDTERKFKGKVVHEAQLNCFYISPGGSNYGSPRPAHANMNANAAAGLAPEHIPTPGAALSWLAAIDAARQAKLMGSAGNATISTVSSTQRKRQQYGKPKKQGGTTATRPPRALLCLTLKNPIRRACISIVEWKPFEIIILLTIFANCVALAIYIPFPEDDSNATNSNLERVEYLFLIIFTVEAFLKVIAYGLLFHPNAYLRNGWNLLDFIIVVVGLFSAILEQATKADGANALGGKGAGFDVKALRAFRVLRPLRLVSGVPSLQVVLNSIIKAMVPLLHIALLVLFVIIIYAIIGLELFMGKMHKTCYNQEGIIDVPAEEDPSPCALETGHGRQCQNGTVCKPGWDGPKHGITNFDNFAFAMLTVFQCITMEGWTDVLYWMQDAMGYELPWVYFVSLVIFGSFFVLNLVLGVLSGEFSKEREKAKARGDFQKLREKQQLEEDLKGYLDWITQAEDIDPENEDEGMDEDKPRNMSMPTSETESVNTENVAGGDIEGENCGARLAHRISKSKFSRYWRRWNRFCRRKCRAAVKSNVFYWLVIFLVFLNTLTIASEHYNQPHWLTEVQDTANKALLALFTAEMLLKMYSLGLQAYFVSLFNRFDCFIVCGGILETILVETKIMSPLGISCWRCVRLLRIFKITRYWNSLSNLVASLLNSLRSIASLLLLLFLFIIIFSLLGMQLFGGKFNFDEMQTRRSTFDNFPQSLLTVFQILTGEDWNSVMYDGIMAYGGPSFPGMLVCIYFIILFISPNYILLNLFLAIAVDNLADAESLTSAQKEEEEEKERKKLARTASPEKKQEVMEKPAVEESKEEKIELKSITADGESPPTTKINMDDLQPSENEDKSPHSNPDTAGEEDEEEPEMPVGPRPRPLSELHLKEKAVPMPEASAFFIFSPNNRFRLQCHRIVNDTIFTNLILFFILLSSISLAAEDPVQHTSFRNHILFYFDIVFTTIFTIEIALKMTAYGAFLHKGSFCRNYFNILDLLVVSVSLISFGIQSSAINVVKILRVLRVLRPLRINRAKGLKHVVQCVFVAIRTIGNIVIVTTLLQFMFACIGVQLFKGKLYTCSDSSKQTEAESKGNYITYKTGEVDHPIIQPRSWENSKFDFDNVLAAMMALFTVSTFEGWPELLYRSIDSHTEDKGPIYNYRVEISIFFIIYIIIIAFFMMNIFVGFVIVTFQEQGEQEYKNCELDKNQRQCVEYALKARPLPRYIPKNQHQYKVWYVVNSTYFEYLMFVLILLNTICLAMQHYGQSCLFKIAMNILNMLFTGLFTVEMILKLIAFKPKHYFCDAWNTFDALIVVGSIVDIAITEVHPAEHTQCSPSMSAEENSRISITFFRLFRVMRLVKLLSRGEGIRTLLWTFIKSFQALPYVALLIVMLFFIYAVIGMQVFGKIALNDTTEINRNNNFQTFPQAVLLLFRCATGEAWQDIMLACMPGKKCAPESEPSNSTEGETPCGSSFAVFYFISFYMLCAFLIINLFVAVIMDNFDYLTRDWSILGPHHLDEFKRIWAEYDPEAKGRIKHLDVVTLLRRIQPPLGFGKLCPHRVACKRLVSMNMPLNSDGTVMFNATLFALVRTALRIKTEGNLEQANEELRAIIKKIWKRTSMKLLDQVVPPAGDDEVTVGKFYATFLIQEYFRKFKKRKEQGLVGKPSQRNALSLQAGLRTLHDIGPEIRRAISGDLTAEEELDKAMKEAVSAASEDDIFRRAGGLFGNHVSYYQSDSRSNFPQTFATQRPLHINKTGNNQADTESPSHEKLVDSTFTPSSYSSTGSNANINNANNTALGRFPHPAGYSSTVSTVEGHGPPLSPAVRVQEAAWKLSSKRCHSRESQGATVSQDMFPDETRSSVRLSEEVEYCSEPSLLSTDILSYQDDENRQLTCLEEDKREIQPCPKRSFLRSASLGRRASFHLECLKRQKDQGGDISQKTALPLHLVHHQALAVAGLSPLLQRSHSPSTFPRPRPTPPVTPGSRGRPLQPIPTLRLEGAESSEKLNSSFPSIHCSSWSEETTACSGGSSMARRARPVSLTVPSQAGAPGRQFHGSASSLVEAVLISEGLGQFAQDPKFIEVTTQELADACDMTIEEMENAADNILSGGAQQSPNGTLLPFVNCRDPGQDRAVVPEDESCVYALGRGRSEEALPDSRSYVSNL
T7 sequence (P54290 25-944 partner limits assumed, other chains not shown): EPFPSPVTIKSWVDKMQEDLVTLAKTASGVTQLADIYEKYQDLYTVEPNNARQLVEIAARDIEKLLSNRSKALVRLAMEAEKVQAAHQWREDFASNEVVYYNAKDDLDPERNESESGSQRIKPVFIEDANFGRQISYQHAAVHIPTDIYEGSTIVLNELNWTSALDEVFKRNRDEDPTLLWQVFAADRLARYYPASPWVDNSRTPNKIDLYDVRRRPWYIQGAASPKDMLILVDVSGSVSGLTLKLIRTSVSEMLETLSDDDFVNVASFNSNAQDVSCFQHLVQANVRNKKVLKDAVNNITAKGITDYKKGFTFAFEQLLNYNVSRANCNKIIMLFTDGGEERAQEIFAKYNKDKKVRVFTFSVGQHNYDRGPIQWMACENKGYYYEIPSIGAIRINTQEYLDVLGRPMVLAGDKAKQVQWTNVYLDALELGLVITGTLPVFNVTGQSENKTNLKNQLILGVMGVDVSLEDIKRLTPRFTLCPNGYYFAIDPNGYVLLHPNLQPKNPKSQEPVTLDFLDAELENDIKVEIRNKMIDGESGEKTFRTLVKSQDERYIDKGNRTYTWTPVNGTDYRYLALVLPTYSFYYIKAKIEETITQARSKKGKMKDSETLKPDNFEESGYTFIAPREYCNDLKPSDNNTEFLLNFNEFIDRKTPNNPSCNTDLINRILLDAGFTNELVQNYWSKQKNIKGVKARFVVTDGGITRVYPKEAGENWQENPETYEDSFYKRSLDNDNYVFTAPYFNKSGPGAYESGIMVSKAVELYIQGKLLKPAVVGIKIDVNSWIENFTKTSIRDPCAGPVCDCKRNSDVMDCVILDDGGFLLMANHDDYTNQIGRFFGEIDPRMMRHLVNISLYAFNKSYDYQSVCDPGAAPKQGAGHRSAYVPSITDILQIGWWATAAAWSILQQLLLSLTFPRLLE
T7 sequence (P54290 945-1091 partner limits assumed, other chains not shown): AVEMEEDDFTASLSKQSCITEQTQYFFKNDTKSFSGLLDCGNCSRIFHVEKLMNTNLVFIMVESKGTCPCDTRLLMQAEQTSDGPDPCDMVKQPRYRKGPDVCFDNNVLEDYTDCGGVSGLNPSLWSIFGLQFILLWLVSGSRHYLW
T6 sequence (P28222 whole entry): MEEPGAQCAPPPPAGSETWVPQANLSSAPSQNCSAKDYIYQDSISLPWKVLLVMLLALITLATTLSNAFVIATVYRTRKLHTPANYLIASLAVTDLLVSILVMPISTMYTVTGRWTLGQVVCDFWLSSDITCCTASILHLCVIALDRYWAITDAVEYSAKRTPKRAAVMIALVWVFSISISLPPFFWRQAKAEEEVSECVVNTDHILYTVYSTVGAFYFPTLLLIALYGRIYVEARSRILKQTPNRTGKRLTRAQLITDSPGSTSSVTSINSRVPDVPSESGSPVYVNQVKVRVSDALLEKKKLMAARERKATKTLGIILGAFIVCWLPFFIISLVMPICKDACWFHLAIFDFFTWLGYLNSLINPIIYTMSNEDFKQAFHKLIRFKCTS

Row | Compound | Serotonin 5HT1F (pK1) (human 5HT1F receptor; Table 2, cloned human receptor) | Serotonin 5HT1Db (pK1) (human 5HT1Dβ receptor; Table 2, cloned human receptor) | Human Prostate (pA) (human prostate tissue) | Serotonin 5HT1Da (pK1) (human 5HT1Dα receptor; Table 2, cloned human receptor) | Dopamine D2 (pK1) (human D2 receptor; Table 2, cloned human receptor) | Histamine H2 (pK1) ([1]; Table 2, cloned human receptor) | Serotonin 5HT2 (pK1) (human 5HT2 receptor; Table 2, cloned human receptor) | Alpha-2 Adrenergic a2c (pK1) ([2]; Table 2, cloned human receptor) | Calcium Channel (pK1) (calcium channels; [3]) | Ki (human D2 receptor; Table 2, cloned human receptor) | Ki ([1]; Table 2, cloned human receptor) | Ki (human 5HT2 receptor; Table 2, cloned human receptor) | Ki ([2]; Table 2, cloned human receptor) | Ki (calcium channels; [3]) | further results
1 | 4-fluoro-4-(8-fluoro-1,3,4,5-tetrahydro-2H-pyrido[4,3-b]indol-2-yl)butyrophenone hydrochloride [Compound A-30360, reference compound] | <5.0 | <6.0 | 8.72 | <6.0 | – | – | – | – | – | – | – | – | – | – | Dopamine D2 (pK1) (human D2 receptor): <9.0; Histamine H2 (pK1) [1]: 5.77; Serotonin 5HT2 (pK1) (human 5HT2 receptor): <8.0; Alpha-2 Adrenergic a2c (pK1) [2]: 6.23; Calcium Channel (pK1) (calcium channels): 5.26
2 | COc1ccccc1N1CCN(CCCNc2c(C)c(=O)n(C)c(=O)n2C)CC1 [5-Methyl-Urapidil, 5-methylurapidil, reference compound] | – | 6.82 | 8.38 | 7.30 | <5.0 | 4.47 | <6.0 | 6.88 | – | – | – | – | – | – | –
3 | O=C(CCCN1CCC(NC(=O)c2ccccc2)CC1)c1ccc(Cl)cc1 [Compound 7] | <5.0 | <5.0 | 7.63 | <6.0 | <7.0 | 6.02 | <6.0 | 6.09 | 4.79 | – | – | – | – | – | –
4 | COC(=O)C1=C(C)NC(C)=C(C(=O)OCCCN2CCC(c3ccccc3)(c3ccccc3)CC2)C1c1ccc([N+](=O)[O-])cc1.Cl (centres unmarked) [Compound 8, 2,6-Dimethyl-4-(4-nitrophenyl)-1,4-dihydropyridine-3,5-dicarboxylic acid [3-(4,4-diphenylpiperidin-1-yl)propyl] ester methyl ester hydrochloride] | – | – | 7.46 | – | – | – | – | 5.77 | 6.87 | > 1000 nM | 776 nM | > 100 nM | – | – | Ki (human 5HT1F receptor): > 10000 nM; Ki (human 5HT1Dβ receptor): > 10000 nM; Ki (human 5HT1Dα receptor): > 1000 nM
5 | O=C(CCCN1CCC(NC(=O)c2ccccc2)CC1)c1ccccc1 [Compound 9] | <5.0 | <6.0 | 7.41 | <6.0 | <7.0 | 5.44 | <7.0 | 5.90 | 4.44 | – | – | – | – | – | –
6 | COc1ccc(CCNCC2CCc3ccccc3C2)cc1 (centres unmarked) [Compound 11, 2-[(4-Methoxyphenethyl)aminomethyl]-1,2,3,4-tetrahydronaphthalene] | – | – | 6.64 | – | – | – | – | – | – | > 1000 nM | 35.5 nM | > 100 nM | 120 nM | 6610 nM | Ki (human 5HT1F receptor): > 10000 nM; Ki (human 5HT1Dβ receptor): > 1000 nM; Human Prostate (pA) (human prostate tissue; listed as SNAP 5036): low; Ki (human 5HT1Dα receptor): > 1000 nM
7 | O=C(NC1CCN(CCc2c[nH]c3ccccc23)CC1)c1ccccc1 [Indoramin, reference compound] | – | – | 7.86 | – | – | – | – | – | – | > 10 nM | 2340 nM | > 100 nM | 6030 nM | 29500 nM | Ki (human 5HT1F receptor; [4]): > 10000 nM; Ki (human 5HT1Dβ receptor; [5]): > 1000 nM; Ki (human 5HT1Dα receptor; [6]): > 1000 nM
8 | C=Cc1sc2ccc(Cl)c3c2c1CN(C)CC3 [SKF-104856, 7-Chloro-2-ethenyl-3,4,5,6-tetrahydro-4-methylthieno[4,3,2-ef][3]benzazepine, reference compound] | – | – | 7.66 | – | – | – | – | – | – | > 100 nM | 1450 nM | > 1000 nM | 25.1 nM | 20900 nM | Ki (human 5HT1F receptor; [4]): > 100 nM; Ki (human 5HT1Dβ receptor; [5]): > 100 nM; Ki (human 5HT1Dα receptor; [6]): > 100 nM
